Assay [1] relates to keratinocytes (HaCat line). Put plainly: Proliferation of keratinocytes (HaCat line) in culture medium deficient in growth factors; Cyquant, Nile red and XTT probes. It is filed as cell-based. How it is done: The keratinocytes (HaCat line) are cultured under two conditions: whole defined culture medium (standard condition) and culture medium deficient in growth factors. This deficient medium gives rise to a controlled delay in cell proliferation. Under these conditions, it is then possible to measure the effects of compounds capable of compensating for the deficiency in growth factors of the culture medium and thus of relaunching the cell multiplication and/or of stimulating cell metabolism.
The keratinocyte proliferation is measured by means of three markers on the same cell population: the level of DNA, which is proportional to the number of cells (Cyquant probe), the level of constituent polar lipids of cell membranes (Nile red probe) and the mitochondrial respiration, which reflects the general cell metabolism (XTT probe).
Background: Tetrazolium assays rely on reduction of a dye to a coloured formazan, in cell work by metabolically active cells.

The test system of assay [2] is dermal fibroblasts of the reconstructed skin. The assay is described as follows: Proliferation of dermal fibroblasts in whole reconstructed skin (propidium iodide nuclei count on frozen sections). It is filed as cell-based, human. The following applies: 5 mM, 48 hours of treatment, reconstructed skin versus control skin. The text has this:
Rhamnose was studied on a model of whole reconstructed skin in order to measure its anti-ageing efficacy on the dermal compartment.
(§1) Briefly, the model of reconstructed skin used is that described by Bell et al. (Bell E. et al., The reconstitution of living skin, J. Invest. Dermatol., 1983, July; 81): it includes a dermal equivalent on which is reconstructed a multistratified epidermis; the dermal equivalent is manufactured from acid-soluble collagen, culture medium containing serum and normal adult human fibroblasts. After 5 days of shrinkage, this equivalent is inoculated with keratinocytes and then cultured for 6 days in immersion and for 7 days in emersion in order to obtain a multistratified and differentiated epidermis having a horny layer.
The reconstructed skin is treated with 5 mM rhamnose for 2 days and 5 days in the culture medium; after the treatment, the reconstructed skins are included in Tissue Tek in order to produce frozen sections 7 μm thick with a cryostat. […] Three frozen sections are prepared at random on each reconstructed skin; on each section, two microscopic fields (25× objective lens) are analysed by fluorescence microscopy and photographed. The dermal fibroblasts are thus counted for each reconstructed skin on six images in total representing the six microscopic fields considered. […]

A further assay relates to type I procollagen. The assay is described as follows: Synthesis of procollagen 1 in the dermis of reconstructed skin (indirect immunofluorescence). The following applies: for procollagen 1 synthesis: reconstructed skin. The assay is classed as cell-based, human.
Text: as §1
Conventional detection via indirect immunofluorescence of type I procollagen in the dermis of the reconstructed skin was also performed on other series of frozen sections (anti-procoll 1 antibody (MAB 1912 Millipore)+FTIC-coupled conjugate (112-095-068 Jackson Immunoresearch)). In order to obtain bearings within the cutaneous architecture during the microscopic examination of the sections, the cell nuclei of the keratinocytes and fibroblasts are localized by staining them with propidium iodide, as described above. Three frozen sections are prepared at random on each reconstructed skin and on each section, and two microscopic fields (25× objective lens) are analysed by fluorescence microscopy and photographed. The levels of fluorescence proportional to the amount of type I procollagen are compared between the control skin and the skin treated with rhamnose.

Where [3] appears, read: 1 mM, medium depleted in growth factors, versus untreated control.

The structures appear in SMILES notation.

`C[C@H](O)[C@H](O)[C@@H](O)[C@@H](O)C=O` [rhamnose]: the “efficacy on keratinocyte proliferation markers” value in assay [1] (500 μM, medium depleted in growth factors) was “already show efficacy”. Also, in assay [1] (setting [3]), the “level of DNA (Cyquant)” value was “significantly increased”, the “level of polar lipids (Nile red signal)” value is on record as “significantly increased” and the “mitochondrial respiration (XTT signal)” value was “significantly increased”. In addition, the keratinocyte proliferation entry in assay [1] (HaCat keratinocytes cultured in medium depleted in growth factors, versus untreated control) is given as “activate keratinocyte proliferation”. In assay [2], the “growth of the dermal fibroblasts” value is recorded as “induces stimulation of growth”. In the assay on type I procollagen (1 mM for 120 hours, reconstructed skin versus control skin), the “green fluorescence proportional to the amount of type I procollagen” value is “marked increase in green fluorescence”. Besides, the “procollagen 1 synthesis” value in the assay on type I procollagen (1 mM) is on record as “stimulation of procollagen 1 synthesis”. Also, the “procollagen 1 synthesis” value with type I procollagen (5 mM) is “stimulation of procollagen 1 synthesis”.

Source of the values: US20100190727A1, “USE OF MONOSACCHARIDES AND COMPOSITION THEREFOR” (L'OREAL, priority 2008, published 2010).
